What was measured:
NF-κB p105/p50 = assay: Phospho explorer antibody microarray of LPS-treated RAW 264.7 cells: NF-κB p105/p50; format: cell-based; settings: 200 μM peptide 1 hour then LPS 1 μg/mL 30 minutes, compared to cells treated with only LPS
Protocol: (§1) RAW 264.7 cells were starved in 0.5% FBS for 2 hours and treated with 200 μM of the peptide of SEQ ID NO: 1 for 1 hour, and then inflammation was induced at 37° C. for 30 minutes with LPS (1 μg/mL). Cell lysates of untreated cells (NT), cells treated with LPS, and cells treated with SEQ ID NO: 1 and LPS were applied to a Phospho explorer antibody microarray from Full Moon Biosystems. The phospho microarray is capable of recognizing 1318 antibodies related to 30 signaling systems. A standard-size coated glass microscope slide was coated with each antibody. =It was scanned with a GenePix 4100A scanner (Axon Instrument, Foster City, CA, USA). Data were analyzed with Genowiz 4.0™ (Ocimum Biosolutions, Hyderabad, India). The phosphorylation ratio was calculated as follows.
(§2) Formula for calculating phosphorylation ratio in each antibody: Phosphorylation ratio=(phosphorylation value of experimental group/non-phosphorylation value of experimental group)/(phosphorylation value of control group/non-phosphorylation value of control group)

IκBα = assay: Phospho explorer antibody microarray of LPS-treated RAW 264.7 cells: IκBα; format: cell-based; settings: 200 μM peptide 1 hour then LPS 1 μg/mL 30 minutes, compared to cells treated with only LPS
Protocol: as §1, §2

HDAC5 protein = target: T1, HDAC5 protein (Homo sapiens, UniProt Q9UQL6); assay: Biacore T200 binding affinity to immobilised HDAC5 protein; settings: CM5 chip, 1:1 binding model
T1 construct: purchased Abcam
T1 sequence (Q9UQL6 whole entry, species assumed): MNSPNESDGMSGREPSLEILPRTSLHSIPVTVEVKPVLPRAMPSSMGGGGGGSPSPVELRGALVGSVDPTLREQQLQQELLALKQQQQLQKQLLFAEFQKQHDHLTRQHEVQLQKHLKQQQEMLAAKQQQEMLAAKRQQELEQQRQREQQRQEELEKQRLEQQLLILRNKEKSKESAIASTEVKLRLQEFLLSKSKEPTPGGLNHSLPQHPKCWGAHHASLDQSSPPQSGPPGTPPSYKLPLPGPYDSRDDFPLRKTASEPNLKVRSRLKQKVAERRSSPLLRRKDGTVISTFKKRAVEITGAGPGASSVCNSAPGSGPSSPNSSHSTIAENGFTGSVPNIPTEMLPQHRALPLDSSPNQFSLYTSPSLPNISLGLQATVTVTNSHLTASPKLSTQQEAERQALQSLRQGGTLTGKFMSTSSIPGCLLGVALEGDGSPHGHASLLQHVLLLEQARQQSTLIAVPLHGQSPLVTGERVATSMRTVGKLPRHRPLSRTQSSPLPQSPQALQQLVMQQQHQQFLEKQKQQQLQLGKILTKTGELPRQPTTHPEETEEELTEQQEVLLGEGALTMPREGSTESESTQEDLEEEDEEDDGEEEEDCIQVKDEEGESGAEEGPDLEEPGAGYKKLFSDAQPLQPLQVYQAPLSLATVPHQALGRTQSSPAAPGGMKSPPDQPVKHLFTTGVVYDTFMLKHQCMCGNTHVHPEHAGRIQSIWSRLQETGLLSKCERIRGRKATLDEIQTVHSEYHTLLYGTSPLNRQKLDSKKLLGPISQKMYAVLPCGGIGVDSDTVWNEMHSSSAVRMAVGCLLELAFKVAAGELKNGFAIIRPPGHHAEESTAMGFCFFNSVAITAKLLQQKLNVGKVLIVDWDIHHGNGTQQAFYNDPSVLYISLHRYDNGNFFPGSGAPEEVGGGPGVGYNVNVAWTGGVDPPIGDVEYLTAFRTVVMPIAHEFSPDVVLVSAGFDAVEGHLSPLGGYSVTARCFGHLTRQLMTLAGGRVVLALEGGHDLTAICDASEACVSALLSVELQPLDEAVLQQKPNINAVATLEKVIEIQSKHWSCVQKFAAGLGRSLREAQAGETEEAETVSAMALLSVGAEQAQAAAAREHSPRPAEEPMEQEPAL
Protocol: For this purpose, HDAC5 protein (Abcam, MA, USA) was dissolved in sodium acetate buffer (pH 4.5), and was bound to a dextran-covered sensor chip surface (CM5 chip) using N-hydroxysuccinimide (NHS) and N-ethyl-N0-(3-dimethylaminopropyl)-carbodiimide hydrochloride (EDAC) as crosslinkers. The unreacted active group of dextran was blocked by the addition of ethanolamine (1M) thereto. The number of HDAC5 binding to the chip was measured as 4440RU (1000 RU=1 ng/mm^2). […] Rate constants for association (ka) and dissociation (kd), and a dissociation constant (KD) were calculated using BIAevaluation software and a 1:1 binding model.

[1] = test system: high-fat diet C57BL/6 mice; assay: Non-alcoholic hepatitis animal model induced by high-fat diet; format: in vivo; settings: 7 weeks, peptide 15 or 30 mg/kg
Text: In order to determine whether or not the peptide according to the present invention has the effect of treating hepatitis and inhibiting obesity in vivo, a non-alcoholic hepatitis animal model induced by a high-fat diet was used. Male C57BL/6 mice (7 weeks old) were acclimated for 1 week and a total of 20 animals were divided into four experimental groups (n=5 per group), namely, a normal diet group (control), a high-fat diet group (DIO: HFD-induced obesity), a group injected with a low dose of the peptide of SEQ ID NO: 1 (LD SEQ ID NO: 1, 15 mg/kg) and a group injected with a high dose of the peptide of SEQ ID NO: 1 (HD SEQ ID NO: 1, 30 mg/kg), and were reared with the high-fat diet or the normal diet for 7 weeks. The high-fat diet was a 60% high-fat diet (Dyets, Inc). During 7 weeks of rearing, body weight and feed intake were measured twice a week. On the 50th day after 7 weeks of rearing, the animals were sacrificed, and liver and adipose tissues were collected and sized.

C[C@@H](O)[C@H](NC(=O)[C@H](CO)NC(=O)[C@H](CS)NC(=O)[C@H](CCCCN)NC(=O)CN)C(=O)N[C@@H](CCCNC(=N)N)C(=O)NCC(=O)N[C@@H](CCCNC(=N)N)C(=O)N[C@@H](CCCCN)C(=O)N[C@@H](CS)C(=O)N[C@@H](CS)C(=O)N[C@@H](CCCNC(=N)N)C(=O)N[C@@H](CCCNC(=N)N)C(=O)N[C@@H](CCCCN)C(=O)N[C@@H](CCCCN)C(=O)O [SEQ ID NO: 1]
Phosphorylation ratio of NF-κB p105/p50 (NF-κB p105/p50): 0.485 | Phosphorylation ratio of IκBα (IκBα): 0.509 | kd (HDAC5 protein): 0.07264 s⁻¹ | kon (HDAC5 protein; read-out: ka): 108000 M⁻¹ s⁻¹ | Size of subcutaneous fat [1]: decreased | Size of the liver [1]: decreased
